Measurements taken from patent publication US20200163984A1, “USE OF ISOVALERYL SPIRAMYCIN I, II AND/OR III IN MANUFACTURING MEDICAMENT FOR TREATING AND/OR PREVENTING TUMOR, AND MEDICAMENT” (SHENYANG FUYANG PHARMACEUTICAL TECHNOLOGY CO., LTD., priority 2017, published 2020).

How the values were obtained:
[1] = tested on: spleen lymphocytes (ConA, LPS stimulation); test: Spleen lymphocyte proliferation activity of Lewis lung cancer tumor-bearing mice; assay type: in vivo, C57BL/6 mouse; conditions: for lymphocyte activity compared with the control group: Lewis tumor-bearing mice; for B Lymphocyte Proliferation Activity (%) / T Lymphocyte Proliferation Activity (%): n = 6
Method: (§1) In the Lewis lung cancer model, the mice inoculated with the tumor were randomly divided into groups with 10 mice in each group the next day of inoculation. The groups included: a model control group, a positive drug cyclophosphamide control group (CTX, 30 mg/kg), isovaleryl spiramycin I groups with doses of 13, 26 and 52 mg/kg; isovaleryl spiramycin II groups with doses of 13, 26 and 52 mg/kg; isovaleryl spiramycin III groups with doses of 13, 26 and 52 mg/kg. Each group was continuously administered intragastrically for 15 days with a dose of 20 ml/kg.
(§2) The serum-free RPMI 1640 medium was placed in a dish, and then the dish was placed on ice. The spleen was aseptically taken and gently ground with a sterile glass slide to prepare a single cell suspension. The single cell suspension was filtered with a double-layer sterile gauze, washed twice with serum-free RPMI1640 medium, and centrifuged at 1,500 rpm for 5 min to remove the obtained supernatant. 2 mL of red blood cell lysate was added to the treated suspension, the mixture was allowed to stand for 2 min, and then 8 mL of RPMI 1640 medium was added, centrifuging was performed at 1,500 rpm for 5 min to remove the obtained supernatant, and then washing was performed twice with the RPMI 1640 medium. […] A single cell suspension was prepared by using a RPMI 1640 medium containing 10% fetal bovine serum.
The spleen cell suspension was taken, and the cell density was adjusted to 1×10^7/mL. Each mouse was set with: A. a control well: 100 μL of RPMI 1640 medium was added; B. a concanavalin A (ConA) stimulation well: 100 μL (10 mg/L) of concanavalin A (ConA) solution was added; and C. a bacterial endotoxin (LPS) stimulating well: 100 μL (20 mg/L) of bacterial endotoxin (LPS) solution was added. The above cells were added to a 96-well plate, and then 100 μL of spleen cell suspension was added to each of the above wells. After the culture plate was transferred to a saturated humidity condition with a volume fraction of 5% CO2 at 37° C. for incubation for 72 h, 10 μL of MTT solution (5 g/L) was added to each well, and incubation was continued to be performed for 4 hours under the same conditions, then the culture was terminated. 100 μl of a triple solution (SDS 10 g, 10M HCl 0.1 mL, […] 5 mL, diluted with distilled water to 100 mL) was added, and the plate was shaken for 10 min to fully dissolve the crystals. The Optical Density (OD) of each well was measured at 570 nm, and the lymphocyte proliferation rate was calculated. Lymphocyte proliferation rate (%)=[(T-C)/C]×100%, wherein T was the Optical Density of the stimulation well, and C is the Optical Density of the control well.

[2] = tested on: NK cell activity of spleen cells against K562 cells; test: Natural killer (NK) cell activity of Lewis lung cancer tumor-bearing mice; assay type: in vivo, C57BL/6 mouse
Method: as §1, §2
The spleen cell suspension was taken, and the cell density was adjusted to 1×10^7/mL (effector cells). A suspension of K562 cells was prepared with a cell density of 1×10^5/mL (target cells). Each mouse was set with: A. effector cells:target cell well (quantity ratio 20:1) to which […] of spleen cell suspension and 100 μL of K562 cell suspension were added; B. an effector cell control well to which 100 μL of spleen cell suspension and 100 μL of RPMI 1640 medium were added; and C. a target cell control well to which 100 μL of K562 cell suspension and 100 μL of RPMI 1640 medium were added. The above cells were added to a 96-well plate. After the 96-well plate was transferred to a saturated humidity condition with a volume fraction of 5% CO2 at 37° C. for incubation for 22 h, 10 μL of MTT solution (5 g/L) was added to each well, and incubation was continued to be performed for 4 hours under the same conditions, then the culture was terminated. 100 μl of a triple solution (SDS 10 g, 10M HCl 0.1 mL, isobutanol 5 mL, diluted with distilled water to 100 mL) was added, and the plate was shaken for 10 min to fully dissolve the crystals, and the Optical Density (OD) of each well at 490 nm was measured, and the NK cell activity was calculated. NK cell activity (%)=[TO−(S−E)]/TO×100%, wherein TO is the Optical Density of the target cell control well, S is the Optical Density of the effector cell control well, and E is the Optical Density of the effector cell.

[3] = tested on: transplanted tumor of human esophageal cancer cell TE-1; test: TE-1 transplanted tumor in nude mice; conditions: for tumor volume and relative tumor volume compared with the model group: low, medium and high doses, P<0.05; for mouse weight compared with the model group: in vivo
Method: Then cell concentration was adjusted to 1×10^7/ml with matrigel, then each nude mouse was inoculated subcutaneously with 0.2 ml of cells at its right armpit and recorded as the first day of inoculation. When the tumor grows to be greater than or equal to 100 mm^3, the mice were randomly divided into 11 groups with 6 mice in each group: a model group, a cyclophosphamide group, isovaleryl spiramycin I groups with doses of 25, 50 and 100 mg/kg, isovaleryl spiramycin II groups with doses of 25, 50 and 100 mg/kg, and isovaleryl spiramycin III groups with doses of 25, 50 and 100 mg/kg. Each group was continuously administered intragastrically for 30 days with a dose of 20 ml/kg. The mice were sacrificed the next day after drug withdrawal and the indicators were tested. The long diameter and short diameter of the tumor, and the body weight of each mouse were recorded every 3 days from drug administration to nude mouse sacrifice.
The body weight of the nude mice and the long diameter (a) and short diameter (b) of the transplanted tumor were measured every 3 days, and the tumor volume (v), relative tumor volume (RTV) and relative tumor proliferation rate (T/C) are calculated respectively according to the following formulas, wherein V=a×b^2/2; RTV=V/V0 (V0 is the tumor volume before administration, V is the tumor volume before sacrifice), and T/C (%)=treatment group RTV/model control group RTV×100%.
Each mouse was weighed and sacrificed. After the tumor was completely stripped off from the body of the mouse, the non-tumor tissues such as blood stains and fat were removed to weigh the tumor and calculate the tumor growth inhibition rate. The average tumor weight of each group of mice is used as an indicator of efficacy. Tumor growth inhibition rate (%)=(1−the average tumor weight of the treatment group/the average tumor weight of the model group)×100%.

[4] = 13, 26 and 52 mg/kg, P<0.05, P<0.01
[5] = TE-1, 12.5 mg/kg (low dose) i.g. 30 days
[6] = TE-1, 25 mg/kg (medium dose) i.g. 30 days
[7] = TE-1, 50 mg/kg (high dose) i.g. 30 days

Structure (SMILES) | B Lymphocyte Proliferation Activity (%) ([1]; dose 26 mg/kg) | T Lymphocyte Proliferation Activity (%) ([1]; dose 26 mg/kg) | NK Cell Activity ([2]; 26 mg/kg) | lymphocyte activity compared with the control group [1, 4] | B Lymphocyte Proliferation Activity (%) ([1]; dose 13 mg/kg) | T Lymphocyte Proliferation Activity (%) ([1]; dose 13 mg/kg) | B Lymphocyte Proliferation Activity (%) ([1]; dose 52 mg/kg) | T Lymphocyte Proliferation Activity (%) ([1]; dose 52 mg/kg) | NK Cell Activity ([2]; 13 mg/kg) | NK Cell Activity ([2]; 52 mg/kg) | NK cell activity compared with the control group ([2]; 13, 26 and 52 mg/kg, P<0.01) | Inhibition Rate (tumor growth inhibition rate) [3, 5] | Relative Tumor Proliferation Rate (T/C) [3, 5] | Relative Tumor Volume (RTV) [3, 5] | Tumor Volume (d 1) [3, 5] | Tumor Volume (d 30) [3, 5] | Tumor Weight [3, 5] | Inhibition Rate (tumor growth inhibition rate) [3, 6] | Relative Tumor Proliferation Rate (T/C) [3, 6] | Relative Tumor Volume (RTV) [3, 6] | further results
O=P1(N(CCCl)CCCl)NCCCO1 (stereo not drawn) [Cyclophosphamide, cyclophosphamide, reference compound] | 11.63 ± 4.68 % | 13.24 ± 3.72 % | 35.4 ± 6.6 % | – | – | – | – | – | – | – | – | – | – | – | – | – | – | – | – | – | lymphocyte activity compared with the control group ([1]; cyclophosphamide, P<0.05): significantly inhibited; NK cell activity compared with the control group ([2]; cyclophosphamide, P<0.05): significantly lower; Body Weight (d 1) ([3]; TE-1, 30 mg/kg i.g. 30 days): 23.18 ± 1.22 g; Body Weight (d 30) ([3]; TE-1, 30 mg/kg i.g. 30 days): 20.57 ± 1.14 g; Inhibition Rate (tumor growth inhibition rate) ([3]; TE-1, 30 mg/kg i.g. 30 days): 71.87%; Relative Tumor Proliferation Rate (T/C) ([3]; TE-1, 30 mg/kg i.g. 30 days): 30.18%; Relative Tumor Volume (RTV) ([3]; TE-1, 30 mg/kg i.g. 30 days): 4.00 ± 1.91; Tumor Volume (d 1) ([3]; TE-1, 30 mg/kg i.g. 30 days): 269.96 ± 92.18 mm3; Tumor Volume (d 30) ([3]; TE-1, 30 mg/kg i.g. 30 days): 886.22 ± 271.22 mm3; Tumor Weight ([3]; TE-1, 30 mg/kg i.g. 30 days): 0.44 ± 0.18 g
CO[C@@H]1[C@@H](O[C@@H]2O[C@H](C)[C@@H](O[C@H]3C[C@@](C)(O)[C@@H](OC(=O)CC(C)C)[C@H](C)O3)[C@H](N(C)C)[C@H]2O)[C@@H](CC=O)C[C@@H](C)[C@@H](O[C@H]2CC[C@H](N(C)C)[C@@H](C)O2)/C=C/C=C/C[C@@H](C)OC(=O)C[C@H]1O [Isovaleryl spiramycin I, isovaleryl spiramycin I] | 44.81 ± 4.41 % | 36.24 ± 2.15 % | 67.0 ± 12.1 % | significantly increase | 41.63 ± 7.06 % | 25.27 ± 8.20 % | 32.71 ± 1.84% | 22.26 ± 4.33% | 52.5 ± 9.2% | 39.8 ± 6.8% | significantly increase | 30.92% | 60.55% | 5.48 ± 3.80 | 408.51 ± 150.80 mm3 | 2690.27 ± 374.79 mm3 | 1.08 ± 0.24 g | 51.01% | 40.70% | 3.94 ± 2.71 | Tumor Volume (d 1) [3, 6]: 258.44 ± 104.69 mm3; Tumor Volume (d 30) [3, 6]: 1143.85 ± 402.36 mm3; Tumor Weight [3, 6]: 0.77 ± 0.43 g; Inhibition Rate (tumor growth inhibition rate) [3, 7]: 69.71%; Relative Tumor Proliferation Rate (T/C) [3, 7]: 20.61%; Relative Tumor Volume (RTV) [3, 7]: 3.65 ± 1.71; Tumor Volume (d 1) [3, 7]: 279.56 ± 156.70 mm3; Tumor Volume (d 30) [3, 7]: 626.64 ± 431.35 mm3; Tumor Weight [3, 7]: 0.48 ± 0.36 g; tumor volume and relative tumor volume compared with the model group ([3]; TE-1): significantly lower; mouse weight compared with the model group [3]: no significant changes
COC1C(OC(C)=O)CC(=O)OC(C)CC=CC=CC(OC2CCC(N(C)C)C(C)O2)C(C)CC(CC=O)C1OC1OC(C)C(OC2CC(C)(O)C(OC(=O)CC(C)C)C(C)O2)C(N(C)C)C1O (stereo not drawn) [Isovaleryl spiramycin II, isovaleryl spiramycin II] | 32.68 ± 2.68% | 15.82 ± 1.68% | 47.0 ± 5.5% | significantly increase | 39.88 ± 3.57% | 16.87 ± 3.28% | 35.94 ± 3.80% | 19.28 ± 2.35% | 47.2 ± 9.2% | 43.1 ± 7.3% | significantly increase | 24.87% | 70.32% | 7.92 ± 6.86 | 134.33 ± 57.77 mm3 | 1027.37 ± 363.55 mm3 | 1.18 ± 0.60 g | 43.78% | 50.51% | 6.99 ± 5.39 | Tumor Volume (d 1) [3, 6]: 195.76 ± 76.95 mm3; Tumor Volume (d 30) [3, 6]: 1075.36 ± 720.20 mm3; Tumor Weight [3, 6]: 0.88 ± 0.46 g; Inhibition Rate (tumor growth inhibition rate) [3, 7]: 72.48%; Relative Tumor Proliferation Rate (T/C) [3, 7]: 36.49%; Relative Tumor Volume (RTV) [3, 7]: 6.97 ± 7.85; Tumor Volume (d 1) [3, 7]: 143.85 ± 16.25 mm3; Tumor Volume (d 30) [3, 7]: 570.92 ± 293.97 mm3; Tumor Weight [3, 7]: 0.43 ± 0.26 g; tumor volume and relative tumor volume compared with the model group ([3]; TE-1): significantly lower; mouse weight compared with the model group [3]: no significant changes
